This note sets out measurements from patent EP0754455A1, “PHARMACEUTICAL COMPOSITIONS BASED ON AMINOMETHYLINDOLES AND THEIR THERAPEUTICAL APPLICATION AS NEUROPROTECTORS IN PARKINSON AND ALZHEIMER DISEASES” (CONSEJO SUPERIOR INVESTIGACIONES CIENTIFICAS (CSIC), priority 1995, dated 1996).

As usually defined, the IC50 is the concentration that inhibits the measured activity by half. A word on the remaining activity: it is the activity still measured, relative to the control. Low readings indicate a large loss of activity, high ones a small loss of activity.

Where two headings read alike, the source gives them in different places.

Assay [1] concerns the target T1, MAO-A (Rattus norvegicus, UniProt P21396).
T1 construct: human and rat tissue to obtain the isolated forms of monoamine oxidase A and B; from tissue
T1 sequence (P21396 1-526): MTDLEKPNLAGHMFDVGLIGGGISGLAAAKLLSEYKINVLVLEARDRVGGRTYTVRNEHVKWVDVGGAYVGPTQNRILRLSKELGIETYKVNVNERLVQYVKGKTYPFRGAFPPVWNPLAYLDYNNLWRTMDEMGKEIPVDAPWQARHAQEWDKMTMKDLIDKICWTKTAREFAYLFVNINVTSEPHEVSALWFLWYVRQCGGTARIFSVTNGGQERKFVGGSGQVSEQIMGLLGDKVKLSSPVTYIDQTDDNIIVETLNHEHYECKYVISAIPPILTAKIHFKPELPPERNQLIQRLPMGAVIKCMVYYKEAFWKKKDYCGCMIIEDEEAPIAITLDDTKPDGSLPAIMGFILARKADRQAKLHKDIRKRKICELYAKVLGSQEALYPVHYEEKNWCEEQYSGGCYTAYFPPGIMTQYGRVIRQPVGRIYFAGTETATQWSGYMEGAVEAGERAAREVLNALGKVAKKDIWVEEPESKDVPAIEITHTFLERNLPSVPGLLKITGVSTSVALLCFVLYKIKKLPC
The experiment in a line: biochemical. Type of assay: biochemical, Sprague-Dawley rat. The protocol:
(§1) The mitochondrial portion of Sprague-Dawley rat was used to determine the MAO-A and MAO-B activity.
(§2) Determinations were made of the comparative MAO-A and MAO-B activity inhibition curves of the various compounds under study at time 0 and 30 min. by measuring the remaining activity to 5-HT and PEA as substrates.

The target of assay [2] is T2, MAO-B (Rattus norvegicus, UniProt P19643).
T2 construct: from tissue; host or cells: Sprague-Dawley rat liver, mitochondrial fraction
T2 sequence (P19643 1-520): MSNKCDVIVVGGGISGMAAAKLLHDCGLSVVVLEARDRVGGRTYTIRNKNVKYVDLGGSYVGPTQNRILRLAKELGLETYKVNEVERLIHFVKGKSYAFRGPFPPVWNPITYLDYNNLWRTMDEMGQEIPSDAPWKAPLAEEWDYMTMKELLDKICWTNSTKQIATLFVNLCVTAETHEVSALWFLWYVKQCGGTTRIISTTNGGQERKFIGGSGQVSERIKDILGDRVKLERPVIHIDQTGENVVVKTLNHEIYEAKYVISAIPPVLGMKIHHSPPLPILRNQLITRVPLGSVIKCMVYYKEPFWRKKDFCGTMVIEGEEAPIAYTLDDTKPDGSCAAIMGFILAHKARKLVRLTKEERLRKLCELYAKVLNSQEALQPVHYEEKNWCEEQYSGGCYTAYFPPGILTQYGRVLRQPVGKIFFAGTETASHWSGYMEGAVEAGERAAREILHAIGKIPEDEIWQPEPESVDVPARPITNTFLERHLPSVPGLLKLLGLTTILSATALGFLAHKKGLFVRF
The experiment in a line: MAO-B inhibition, mitochondrial portion of rat (IC50, time dependence, irreversibility), substrate PEA. It is filed as biochemical, Sprague-Dawley rat. Particulars: MAO-B (lines B..), substrate PEA, rat mitochondria. The protocol:
as §1, §2

The target of assay [3] is T1, MAO-A. The experiment in a line: Kinetic parameters of suicide-type inhibition, MAO-A. Type of assay: biochemical, Sprague-Dawley rat. Particulars: for K^1cat / K1(10^-3) / K^1cat: MAO-A; for K^1cat / K1(10^-3): inhibition efficacy; for K^1cat: velocity constant for formation of the covalent irreversible complex, ± SEM. The text has this: Based on the apparent velocity constants of the first order (kapp) obtained for each inhibitor, calculations were made of the K1 and K^1c at (according to the method described by M. Avila et al. 1993, Biochem Pharmac 45, 2231-2237). K1 is the affinity constant of the first stage of the reaction and K1 MAO-A / K1 MAO-B the expression of the selectivity.
(§3) K^1cat is the velocity constant for the formation of the covalent irreversible complex during the second stage of the process. To compare the values of these constants towards the two forms of MAO, we express the inhibition efficacy as the ratio K^1cat/K1. The value of these constants (see Tables 2 and 3), is the result of three different experiments, with their corresponding SEM.

The target in assay [4] is T2, MAO-B. The experiment in a line: Kinetic parameters of suicide-type inhibition, MAO-B (selectivity K1 MAO-A / K1 MAO-B). Type of assay: biochemical, Sprague-Dawley rat. Particulars: selectivity for MAO-B.
Description: K1 is the affinity constant of the first stage of the reaction and K1 MAO-A / K1 MAO-B the expression of the selectivity.
as §3

Another assay concerns the target T3, dopamine carrier (Homo sapiens, UniProt Q01959).
T3 construct: This assay was carried out in purified synaptosomes of human caudate; from tissue; host or cells: post-mortem human caudate, purified synaptosomes
The experiment in a line: Dopamine carrier inhibition in purified synaptosomes of human caudate. Type of assay: biochemical. The protocol:
This assay was carried out in purified synaptosomes of human caudate obtained using the same method as described by Rodríguez et al. 1987 Biochem Pharmac 36, 974-976.
The studies were carried out with the same inhibitors used in the rat tissue. The dopamine (DA) concentration was 0.1 µM, a value chosen from the kinetic constants obtained.

In assay [5] the target is T4, MAO-A (Mus musculus, UniProt Q64133).
T4 construct: the brains homogenised in potassium phosphate buffer 50 mM, pH 7.2; from tissue; host or cells: C57/BL mouse brain homogenate
T4 sequence (Q64133 1-526): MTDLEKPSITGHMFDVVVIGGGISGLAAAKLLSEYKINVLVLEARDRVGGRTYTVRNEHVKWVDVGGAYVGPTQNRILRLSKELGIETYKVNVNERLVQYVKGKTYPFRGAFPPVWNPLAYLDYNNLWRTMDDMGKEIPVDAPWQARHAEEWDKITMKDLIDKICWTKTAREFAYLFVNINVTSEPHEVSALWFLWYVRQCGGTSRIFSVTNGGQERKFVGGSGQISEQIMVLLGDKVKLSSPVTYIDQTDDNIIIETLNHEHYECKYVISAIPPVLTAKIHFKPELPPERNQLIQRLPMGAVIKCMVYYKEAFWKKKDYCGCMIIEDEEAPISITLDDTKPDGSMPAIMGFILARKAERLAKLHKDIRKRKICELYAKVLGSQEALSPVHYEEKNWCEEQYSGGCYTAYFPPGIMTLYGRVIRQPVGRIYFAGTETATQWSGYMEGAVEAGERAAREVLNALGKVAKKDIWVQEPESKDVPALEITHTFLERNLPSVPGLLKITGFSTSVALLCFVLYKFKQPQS
The experiment in a line: Ex vivo inhibition of brain MAO-A after i.p. administration. Particulars: mouse brain homogenate 2 hours after i.p., l-deprenyl 10 mg/Kg, tested compound 4 mg/Kg. It is filed as in vivo, C57/BL mice. The protocol:
The pharmacological assays were carried out on C57/BL mice. These animals are sensitive to the induction of the symptomatology of Parkinson's disease through the action of MPTP.
The animals were sacrificed by decapitation after 2 hours and the brains homogenised in potassium phosphate buffer 50 mM, pH 7.2. Determinations were made of the MAO-A and MAO-B activity in each case using radiometric methods.

[6] abbreviates: IC50 30 min., MAO-A (lines A..), substrate 5-HT, 30 min incubation, rat mitochondria.
Setting [7] is: MAO-A (lines A..), substrate 5-HT, 0 min incubation, rat mitochondria, read-out: IC50 0 min.
[8] abbreviates: IC50 30 min., 30 min incubation.
Setting [9] is: 0 min incubation, read-out: IC50 0 min.
Where [10] appears, read: MAO-A (A..), affinity constant of the first stage, three experiments ± SEM, read-out: K1.
Where [11] appears, read: read-out: IC50 30 min., MAO-A (lines A..), substrate 5-HT, 30 min incubation, rat mitochondria.

T3 sequence (Q01959 whole entry): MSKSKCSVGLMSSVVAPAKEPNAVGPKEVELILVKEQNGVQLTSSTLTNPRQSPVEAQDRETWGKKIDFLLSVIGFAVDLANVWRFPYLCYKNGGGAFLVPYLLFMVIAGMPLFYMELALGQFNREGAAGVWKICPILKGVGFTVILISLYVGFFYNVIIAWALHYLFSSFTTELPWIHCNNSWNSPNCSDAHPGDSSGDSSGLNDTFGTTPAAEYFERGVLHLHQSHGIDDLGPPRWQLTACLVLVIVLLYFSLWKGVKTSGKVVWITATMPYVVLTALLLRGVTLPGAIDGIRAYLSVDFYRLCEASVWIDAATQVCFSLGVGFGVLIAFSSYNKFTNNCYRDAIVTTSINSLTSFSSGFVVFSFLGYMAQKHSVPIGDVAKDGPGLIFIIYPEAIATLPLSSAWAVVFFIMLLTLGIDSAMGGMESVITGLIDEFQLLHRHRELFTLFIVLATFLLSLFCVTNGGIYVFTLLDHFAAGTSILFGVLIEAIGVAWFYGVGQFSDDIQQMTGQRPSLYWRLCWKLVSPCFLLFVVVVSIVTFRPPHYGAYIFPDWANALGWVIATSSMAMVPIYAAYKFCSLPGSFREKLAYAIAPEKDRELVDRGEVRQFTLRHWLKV

In the case of `CC#CCNCc1cc2cc(OCc3ccccc3)ccc2[nH]1` [FA-74], the IC50 stood at 10000 nM on MAO-A [1] (setting [6]), 63000 nM at MAO-A [1] (setting [7]), 250 nM at MAO-B [2] (setting [8]) and 1580 nM on MAO-B [2] (setting [9]). For the same compound, the Ki at MAO-A [3] (setting [10]) amounted to 5250 nM. The “K^1cat / K1(10^-3)” value at MAO-A [3] is on record as 0.04 10^-3. Moreover, at MAO-A [3], the “K^1cat” value is 0.21 ± 0.1 min⁻¹. In addition, the “K1 MAO-A/K1 MAO-B” value on MAO-B [4] is 276.4.

On to `C=C=CCNCc1cc2cc(OCc3ccccc3)ccc2[nH]1` [FA-75], for which the IC50 was 250 nM on MAO-A [1] (setting [6]), 3980 nM on MAO-A [1] (setting [7]), 25 nM at MAO-B [2] (setting [8]) and 398 nM at MAO-B [2] (setting [9]). On MAO-A [3] (setting [10]), the Ki was 347 nM. Also, the “K^1cat / K1(10^-3)” value on MAO-A [3] is listed as 0.47 10^-3. At MAO-A [3], the “K^1cat” value worked out at 0.16 ± 0.02 min⁻¹. On MAO-B [4], the “K1 MAO-A/K1 MAO-B” value was determined as 63.0.

For `CC#CCN(C)Cc1cc2cc(OCc3ccccc3)ccc2n1C` [FA-66], the concentration for half-maximal inhibition (IC50) at MAO-A [1] worked out at 1250 nM; on MAO-A [1] (setting [11]) it was 150 nM. Besides, on MAO-A [3], the Ki turned out to be 5.4 nM.

Consider `C#CCN(C)Cc1cc2cc(OCc3ccccc3)ccc2n1C` [FA-65], for which the IC50 at MAO-A [1] amounted to 1500 nM; on MAO-A [1] (setting [11]), 100 nM. This compound also yielded a Ki on MAO-A [3] of 18 nM.

`CC#CCN(C)Cc1cc2cc(OCc3ccccc3)ccc2[nH]1` [FA-88] had a half-maximal inhibitory concentration (IC50) on MAO-A [1] of 1580 nM. On MAO-A [1] (setting [11]), the half-inhibitory concentration (IC50) was 150 nM. Further, on MAO-A [3], the Ki turned out to be 13.9 nM and the “K^1cat” value amounted to 0.04 ± 0.001 min⁻¹.

As to `C#CCN(C)Cc1cc2cc(OCc3ccccc3)ccc2[nH]1` [FA-87], the half-maximal inhibitory concentration (IC50) at MAO-A [1] turned out to be 630 nM; at MAO-A [1] (setting [11]) it was 0.79 nM. On MAO-A [3], this compound displayed a Ki of 54.5 nM.

Consider `C=C=CCN(C)Cc1cc2cc(OCc3ccccc3)ccc2n1C` [FA-67], for which the IC50 on MAO-A [1] amounted to 2500 nM; on MAO-A [1] (setting [11]), 190 nM. On MAO-A [3], this compound registered a Ki of 26.5 nM.

On to `C=C=CCNCc1cc2cc(OCc3ccccc3)ccc2n1C` [FA-97], for which the IC50 turned out to be 25 nM against MAO-A [1] (setting [6]), 199 nM at MAO-A [1] (setting [7]), 12 nM against MAO-B [2] (setting [8]) and 790 nM at MAO-B [2] (setting [9]). The Ki on MAO-A [3] (setting [10]) is 18.8 nM. Besides, the “K^1cat / K1(10^-3)” value on MAO-A [3] is reported as 6.0 10^-3. Moreover, the “K^1cat” value at MAO-A [3] is 0.12 ± 0.002 min⁻¹.

In the case of `C#CCN(C)[C@H](C)Cc1ccccc1` [deprenyl, reference compound], the “K^1cat” value at MAO-A [3] came out at 0.049 ± 0.01 min⁻¹. The compound further returned a concentration for half-maximal inhibition (IC50) at dopamine carrier of 100 nM. Further, on MAO-A [5] (ip, control = 100%), the remaining activity at 4 mg/kg is 52.5%. Besides, the “MAO-A ACTIVITY” value on MAO-A [5] (control 485) is listed as 255.

In the case of `C=C=CCN(CC=C=C)Cc1cc2cc(OCc3ccccc3)ccc2[nH]1` [FA-78], the IC50 on MAO-A [1] (setting [6]) was 6300 nM; on MAO-A [1] (setting [7]) it was 120000 nM; against MAO-B [2] (setting [8]), 190 nM; on MAO-B [2] (setting [9]), 3100 nM. For the same compound, the Ki at MAO-A [3] (setting [10]) was found to be 14100 nM. Also, the “K^1cat / K1(10^-3)” value on MAO-A [3] is 0.014 10^-3. For the same compound, the “K^1cat” value on MAO-A [3] is 0.2 ± 0.04 min⁻¹. Besides, the “K1 MAO-A/K1 MAO-B” value on MAO-B [4] stood at 913.6.

With `C#CCN(CC#C)Cc1cc2cc(OCc3ccccc3)ccc2n1C` [FA-98], the concentration for half-maximal inhibition (IC50) was found to be 31000 nM against MAO-A [1] (setting [6]), 2500 nM on MAO-B [2] (setting [8]) and 19400 nM at MAO-B [2] (setting [9]). For the same compound, the Ki at MAO-A [3] (setting [10]) is 19.8 nM. The “K^1cat / K1(10^-3)” value on MAO-A [3] was 5.6 10^-3. Also, the “K^1cat” value on MAO-A [3] came out at 0.11 ± 0.01 min⁻¹. Also, the “K1 MAO-A/K1 MAO-B” value at MAO-B [4] amounted to 873.5.

Consider `CC#CCN(CC#CC)Cc1cc2cc(OCc3ccccc3)ccc2[nH]1` [FA-77], for which the IC50 worked out at 5000 nM on MAO-A [1] (setting [6]), 39000 nM at MAO-A [1] (setting [7]), 10 nM on MAO-B [2] (setting [8]) and 25000 nM on MAO-B [2] (setting [9]). Besides, at MAO-A [3] (setting [10]), the Ki stood at 6520 nM. The “K^1cat / K1(10^-3)” value at MAO-A [3] is reported as 0.014 10^-3. Moreover, the “K^1cat” value at MAO-A [3] came out at 0.09 ± 0.002 min⁻¹. Besides, the “K1 MAO-A/K1 MAO-B” value at MAO-B [4] was 41.5.
